Reference: patent US12642791B2, “Inhibitors of lysyl oxidases” (UNIVERSITY OF SOUTH CAROLINA, priority 2021, dated 2026)

Legend:
recombinant LOX = target: T1, recombinant LOX (Homo sapiens, UniProt P28300); assay: Lysyl oxidase activity assay with recombinant LOX protein; assay type: biochemical; details: for inhibition of recombinant LOX: 10 μM compound; for selectivity LOX versus LOXL2 / LOX family: recombinant proteins
T1 construct: purchased Novus, USA
T1 sequence (P28300 169-417): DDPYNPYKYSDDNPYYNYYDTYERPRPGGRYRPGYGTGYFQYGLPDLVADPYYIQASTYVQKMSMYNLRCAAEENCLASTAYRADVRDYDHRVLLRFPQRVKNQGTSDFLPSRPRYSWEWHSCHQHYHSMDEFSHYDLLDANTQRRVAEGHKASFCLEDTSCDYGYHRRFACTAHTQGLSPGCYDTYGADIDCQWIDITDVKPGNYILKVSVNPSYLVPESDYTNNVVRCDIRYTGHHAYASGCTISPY
Experimental: For in vitro lysyl oxidase activity (for recombinant proteins), Lysyl Oxidase Activity kit (Biovision, USA) was used according to manufacturer's instructions. Briefly, 1 μg of LOX (Novus, USA), 0.2 μg of LOXL1 (Abcam, USA) and 0.1 μg of LOXL2 (Abcam, USA) were incubated with the reagent mix in the presence of inhibitors or vehicle. Lysyl oxidase activity of the wells was measured in multimode reader (every 30 sec, total 2.5 hours) in […] mode.

MDA-MB-231 cells [1] = assay: Migration assay (RTCA CIM plate); assay type: cell-based, human; details: 20 μM, 48 hours
Experimental: FIG. 37. LOX inhibitors, 6232, 6403 and 6415, reduced the migration capacity of the TNBC cell lines. RTCA-CIM plate used to measure the real-time migration of MDA-MB-231 cells upon treatment with 20 μM of 6232, 6403 and 6415 for 48 hours. (* p<0.05; ** p<0.01)
RTCA CIM Plate was used to assess the migration capacity of the cells upon LOX inhibitor treatment according to manufacturer's instructions. Briefly, 160 μl of 10% FBS containing media was added into each bottom chamber/50 μl of FBS free media into upper chamber and incubated 1 hour at 37° C. After the background measurement, 5×10^4 cells were seeded in FBS-free media into upper chamber in the presence of LOX inhibitors or vehicle. After the 30 min incubation at RT, real time cell migration was recorded for 48 hours.

[2] = system: ACHN kidney cancer cell line; assay: Growth inhibition in 3D collagen:matrigel culture (3D Cell Titer Glo); assay type: cell-based, human; details: collagen:matrigel (1:1), uM range
Experimental: FIG. 38. Dose dependent inhibition of cellular LOX activity and growth inhibition in 3D upon treatment with 6232 and its analogs, 6403 and 6415.in ACHN cancer cell line. Inhibition of cell-based LOX activity in ACHN (A) and growth inhibition in collagen:matrigel (1:1) culture (B) cancer cell lines upon treatment with LOX inhibitors 6232, 6403 and 6415 (uM range). BAPN is used as a positive control (mM range) in 3D cell viability assay. Growth inhibition was measured by using 3D Cell Titer Glo kit.
(§1) Collagen solution was prepared at a concentration of 0.5-1 mg/ml from the rat tail collagen I (Corning, USA) with a neutralization step including the addition of 1N NaOH solution. Cells were trypsinazed and resuspended in collagen:matrigel mix (1:1). 8×10^3 cells were seeded into 96-well or μ-Slide 8-well glass bottom chambers. After 1 hour of incubation at room temperature, media was added on top of the solidified collagen:matrigel mix. Drug treatments were done 12 hours after cell seeding.

HFF cells = assay: Fibrosis assay (TGF-beta induced, alpha-SMA and fibronectin staining); assay type: cell-based, human; details: 10 uM compound, 1 hour pretreatment, TGF-β 48 hours
Experimental: FIG. 40. […] 24 hours serum-starved HFF cells were pretreated with inhibitors 1 hours. Then, fibrosis was induced by […] of TGF-β for 48 hours in HFF cells. ALK5 (10 μM) inhibitor is used as a negative control. LOX inhibitors 6232, 6403 and 6415 were used at 10 uM concentration. HFF cells were stained with alpha-SMA and fibronectin primary antibodies. Nucleus of the cells was labeled with DAPI.
Human foreskin fibroblasts (HFF), see Li, M. et al. Icaritin inhibits skin fibrosis through regulating AMPK and Wnt/β-catenin signaling. Cell Biochemistry and Biophysics 79, 231-238 (2021), cells were seeded into μ-Slide 8-well glass bottom chambers (Ibidi, Germany). Next day, media of the cells were replaced with 0.5% FBS contain media and incubated with 24 hours. Then, cells were pretreated either with ALK5 inhibitor (Sellekchem, USA) or LOX inhibitors for 1 hour and cells were incubated with 10 ng/ml of TGF-beta (R&D Biosystems, USA) for 48 hours. Staining of the markers followed the same procedure described in the Immunofluorescence section above.

HCC1143 = assay: Doxorubicin chemosensitization in 3D collagen I culture; assay type: cell-based, human; details: collagen I-embedded cells, combination with doxorubicin
Experimental: as §1
(§2) Cells were embedded in type I collagen:matrigel mix as described above. Cells were grown in the presence of doxorubicin or LOX inhibitors alone or combination of LOX inhibitors with doxorubicin for 48 hours. After the treatment, cell viability was measured by using 3D Cell Titer Glo (Promega, USA) kit.

MDA-MB-231 cells [3] = assay: as above; assay type: cell-based, human; details: collagen I-embedded cells, combination with doxorubicin
Experimental: as §1, §2

MCF12A = assay: Viability assay in normal cells; assay type: cell-based, human; details: normal breast cell line
Description: FIG. 32. 6232 derivatives, 6403 and 6415, show no cytotoxicity in normal cells. Viability assay in normal breast cell line, MCF12A, human foreskin fibroblast cell line, HFF and human endothelial cell line, HUVEC treated with 6403 or 6415.

SMILES	inhibition of recombinant LOX (recombinant LOX)	migration capacity (MDA-MB-231 cells [1])	cell viability in 3D culture [2]	TGF-β-induced fibrosis (alpha-SMA, fibronectin staining) (HFF cells)	selectivity LOX versus LOXL2 / LOX family (recombinant LOX)	doxorubicin sensitization (HCC1143)	doxorubicin sensitization (MDA-MB-231 cells [3])	cell viability (cytotoxicity in normal cells) (MCF12A)	inhibition of recombinant LOX activity (recombinant LOX; 5 and 10 uM)	selectivity LOX versus LOXL2 / LOX family (recombinant LOX; listed as 4-((2′-amino-4′-methyl-[4,5′-bithiazol]-2-yl)(methyl)amino)phenol)
Cc1nc(N)sc1-c1csc(Nc2ccc([N+](=O)[O-])cc2)n1 [compound 6232, 4-methyl-5-[2-(4-nitroanilino)thiazol-4-yl]thiazol-2-amine]	strongly inhibit	inhibited the migration capacity	decrease in cell viability in 3D culture	inhibited the TGF-β-induced fibrosis						
CC(=O)Nc1ccc(Nc2nc(-c3sc(N)nc3C)cs2)cc1 [compound 6403, N-[4-[[4-(2-amino-4-methyl-thiazol-5-yl)thiazol-2-yl]amino]phenyl]acetamide]	inhibits LOX recombinant protein	inhibited the migration capacity	decrease in cell viability in 3D culture	inhibited the TGF-β-induced fibrosis	more potent and selective inhibitor against LOX compared to LOXL2	led to doxorubicin sensitization	led to doxorubicin sensitization	no significant change in cell viability		
Cc1nc(N)sc1-c1csc(N(C)c2ccc(O)cc2)n1 [compound 6415, 4-[[4-(2-amino-4-methyl-thiazol-5-yl)thiazol-2-yl]-methyl-amino]phenol]	inhibits both LOX and LOXL2 recombinant proteins	inhibited the migration capacity	decrease in cell viability in 3D culture	inhibited the TGF-β-induced fibrosis	more like a LOX/LOXL2 inhibitor	led to doxorubicin sensitization	led to doxorubicin sensitization	no significant change in cell viability	inhibited the activity of LOX and LOXL2 recombinant proteins	non-selective inhibitor of the LOX family of enzymes
